Experiments:
BT-474 = test: Cytotoxicity against human BT474 cells assessed as growth inhibition after 72 hrs by calcein-AM dye based fluorescence assay; format: functional; conditions: BT-474, 72 h
MCF7 = test: Cytotoxicity against human MCF7 cells assessed as growth inhibition after 72 hrs by calcein-AM dye based fluorescence assay; format: functional; conditions: MCF7, 72 h
K562 [1] = test: Cytotoxicity against human K562 cells assessed as growth inhibition after 72 hrs by calcein-AM dye based fluorescence assay; format: functional; conditions: K562, 72 h
HCC827 [2] = test: Cytotoxicity against human HCC827 cells assessed as growth inhibition after 72 hrs by calcein-AM dye based fluorescence assay; format: functional; conditions: HCC827, 72 h
EOL1 [3] = test: Cytotoxicity against human EOL-1 cells assessed as growth inhibition after 72 hrs by calcein-AM dye based fluorescence assay; format: functional; conditions: EOL1, 72 h
EOL1 [4] = test: Cell cycle arrest in human EOL-1 cells assessed as G1/G2-M ratio at GI50 concentration after 24 hrs by propidium iodide staining-based flow cytometry relative to control; format: functional
K562 [5] = test: Cell cycle arrest in human K562 cells assessed as G1/G2-M ratio at GI50 concentration after 24 hrs by propidium iodide staining-based flow cytometry relative to control; format: functional
[6] = target: Platelet-derived growth factor receptor alpha (Homo sapiens, UniProt P16234); test: Inhibition of recombinant human N-terminal GST-His6 tagged PDGFRalpha (Q551 to L1089 residues) expressed in Sf9 insect cells using poly(Ala,Glu,Lys,Tyr)6:2:5:1 hydrobromide as substrate in presence of [gamma-33P]ATP
HCC827 [7] = test: Cell cycle arrest in human HCC827 cells assessed as G1/G2-M ratio at GI50 concentration after 24 hrs by propidium iodide staining-based flow cytometry relative to control; format: functional
[8] = target: Cyclin-dependent kinase 2/cyclin E1 (Homo sapiens, UniProt P24941); test: Inhibition of CDK2/cyclin E (unknown origin) expressed in baculovirus infected insect Sf9 cells using histone H1 as substrate in presence of [gamma-33P]ATP

Platelet-derived growth factor receptor alpha, sequence (P16234 whole entry, the tested form may be a part): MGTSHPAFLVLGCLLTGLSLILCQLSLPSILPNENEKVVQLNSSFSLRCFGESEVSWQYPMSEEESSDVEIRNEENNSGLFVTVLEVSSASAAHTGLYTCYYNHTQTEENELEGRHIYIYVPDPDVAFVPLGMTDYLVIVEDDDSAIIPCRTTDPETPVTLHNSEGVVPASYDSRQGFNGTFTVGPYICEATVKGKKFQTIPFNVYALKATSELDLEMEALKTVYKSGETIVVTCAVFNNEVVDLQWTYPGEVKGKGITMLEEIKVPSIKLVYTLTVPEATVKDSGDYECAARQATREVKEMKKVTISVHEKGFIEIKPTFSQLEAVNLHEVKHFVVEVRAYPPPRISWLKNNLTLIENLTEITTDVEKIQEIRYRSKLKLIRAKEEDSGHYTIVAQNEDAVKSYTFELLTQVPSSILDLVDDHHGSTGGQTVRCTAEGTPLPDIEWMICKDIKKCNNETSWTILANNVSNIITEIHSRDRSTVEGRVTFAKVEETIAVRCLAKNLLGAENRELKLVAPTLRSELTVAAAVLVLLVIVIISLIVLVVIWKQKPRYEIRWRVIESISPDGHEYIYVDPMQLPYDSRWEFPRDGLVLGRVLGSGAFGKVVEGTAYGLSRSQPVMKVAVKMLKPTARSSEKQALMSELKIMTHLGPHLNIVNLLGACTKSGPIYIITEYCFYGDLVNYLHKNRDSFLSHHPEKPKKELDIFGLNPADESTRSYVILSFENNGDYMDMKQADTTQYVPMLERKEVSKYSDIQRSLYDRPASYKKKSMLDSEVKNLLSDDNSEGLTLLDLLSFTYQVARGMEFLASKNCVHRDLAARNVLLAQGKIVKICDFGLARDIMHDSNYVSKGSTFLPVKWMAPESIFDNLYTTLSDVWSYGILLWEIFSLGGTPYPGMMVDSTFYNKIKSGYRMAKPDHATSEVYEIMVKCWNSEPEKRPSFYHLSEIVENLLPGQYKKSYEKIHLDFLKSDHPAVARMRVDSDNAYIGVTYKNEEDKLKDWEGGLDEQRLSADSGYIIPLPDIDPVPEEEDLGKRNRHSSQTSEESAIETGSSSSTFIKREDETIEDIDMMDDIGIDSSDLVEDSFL

| SMILES | GI50 (BT-474) | GI50 (MCF7) | GI50 (K562 [1]) | GI50 (HCC827 [2]) | GI50 (EOL1 [3]) | Ratio (EOL1 [4]) | Ratio (K562 [5]) | IC50 [6] | Ratio (HCC827 [7]) | IC50 [8] |
| --- | --- | --- | --- | --- | --- | --- | --- | --- | --- | --- |
| CS(=O)(=O)CCNCc1ccc(-c2ccc3ncnc(Nc4ccc(OCc5cccc(F)c5)c(Cl)c4)c3c2)o1 [LAPATINIB] | 0.2 µM | 8.1 µM | 5700 nM | 22.3 µM | 410 nM | – | – | – | – | – |
| CCCCn1cnc2c(NCc3cccc(Cl)c3)nc(N[C@H]3CC[C@H](N)CC3)nc21 | 4.7 µM | 2.2 µM | 4300 nM | 10.6 µM | 350 nM | 0.99 | 1.27 | > 20000 nM | 0.26 | 207 nM |
| CC(C)=CCC/C(C)=C/Cn1cnc2c(Nc3cccc(Cl)c3)nc(N[C@H]3CC[C@H](N)CC3)nc21 | 4.3 µM | 3.6 µM | 2200 nM | 18.2 µM | 590 nM | 1.13 | 1.78 | 4740 nM | 1.94 | 7170 nM |
| N[C@H]1CC[C@H](Nc2nc(Nc3ccc(Cl)cc3)c3ncn(C4CCCCC4)c3n2)CC1 | 4.1 µM | 2.3 µM | 1700 nM | 9.1 µM | 140 nM | 2.64 | 0.79 | 1090 nM | 2.68 | 965 nM |
| CCCCn1cnc2c(Nc3cccc(Cl)c3)nc(N[C@H]3CC[C@H](N)CC3)nc21 | 5.1 µM | 2 µM | 2000 nM | 7.2 µM | 160 nM | 10.75 | 0.78 | 154 nM | 0.54 | 132 nM |
| CC(C)CCn1cnc2c(Nc3ccc(Cl)cc3)nc(N[C@H]3CC[C@H](N)CC3)nc21 | 5.1 µM | 2.7 µM | 1800 nM | 10.2 µM | 90 nM | 7.8 | 0.81 | 59 nM | 3.5 | 319 nM |
| N[C@H]1CC[C@H](Nc2nc(Nc3ccc(O)cc3)c3ncn(C4CCCCC4)c3n2)CC1 | 27.3 µM | 9.6 µM | 8900 nM | 32.5 µM | 220 nM | 2.44 | 0.95 | 1230 nM | 9.61 | 1440 nM |
| COc1ccc(Cn2cnc3c(Nc4cccc(Cl)c4)nc(N[C@H]4CC[C@H](N)CC4)nc32)cc1 | 8.2 µM | 4.8 µM | 2800 nM | 18.7 µM | 530 nM | 0.96 | 1.43 | 7660 nM | 1.94 | 5500 nM |
| CCCCCCn1cnc2c(Nc3ccc(O)cc3)nc(N[C@H]3CC[C@H](N)CC3)nc21 | 7.7 µM | 3.5 µM | 5400 nM | 24.7 µM | 190 nM | 2.5 | 0.69 | 452 nM | 0.44 | 485 nM |
| COc1cc(Nc2nc(N[C@H]3CC[C@H](N)CC3)nc3c2ncn3CCC(C)C)cc(OC)c1 | 5.9 µM | 4.5 µM | 2500 nM | 11.2 µM | 140 nM | 3.71 | 1.6 | 290 nM | 1.47 | 980 nM |
| CCCCn1cnc2c(Nc3ccccc3)nc(N[C@H]3CC[C@H](N)CC3)nc21 | 4.9 µM | 2.2 µM | 3200 nM | 9 µM | 20 nM | 4.93 | 2.29 | 160 nM | 0.33 | 134 nM |
| CC(C)CCn1cnc2c(Nc3cccc(O)c3)nc(N[C@H]3CC[C@H](N)CC3)nc21 | 14.7 µM | 12.6 µM | 7600 nM | 21.3 µM | 60 nM | 8.94 | 1.22 | 66 nM | 5.6 | 513 nM |

Reference: ChEMBL document CHEMBL4177643, “Trisubstituted purine inhibitors of PDGFRα and their antileukemic activity in the human eosinophilic cell line EOL-1” (Bioorg Med Chem, 2017)
